In data set [1] the test system is Echinochloa oryzicola. Briefly: Pre-emergence herbicide activity against Echinochloa oryzicola under greenhouse condition measured after 14 to 20 days. The data set is classed as functional.
Another data set concerns Sagittaria pygmaea. Briefly: Herbicide activity against Sagittaria pygmaea under greenhouse condition compound treated at 0.5 leaf-stage measured after 14 to 20 days. The data set is classed as functional.
The subject of data set [2] is Oryza sativa. Put plainly: Phytotoxicity against two-leaf stage Oryza sativa cv. Nihonbare (rice) planted 3 cm depth measured after […]. The class given is organism-based. As to conditions: in vivo.
Data set [3] relates to Echinochloa oryzicola. Briefly: Herbicide activity against Echinochloa oryzicola under greenhouse condition compound treated at 2 leaf-stage measured after 14 to 20 days. The data set is classed as functional.
The test system of data set [4] is Oryza sativa. Put plainly: Phytotoxicity against two-leaf stage Oryza sativa cv. Nihonbare (rice) planted 1 cm depth measured after […]. As to conditions: in vivo. The class given is organism-based.
Data set [5] concerns Schoenoplectiella juncoides. Put plainly: Herbicide activity against Schoenoplectiella juncoides under greenhouse condition compound treated at emergence-stage measured after 14 to 20 days. The data set is classed as functional.

SMILES strings stand for the structures.

Take `CC1=C(c2ccc(F)cc2)C(=O)N(C(C)(C)c2nc3ccccc3s2)C1`: the MED in the data set with Echinochloa oryzicola [1] came out at 5 g/acre; in the data set on Sagittaria pygmaea, 20 g/acre; in the data set with Echinochloa oryzicola [3] it was 5 g/acre; in data set [5], 20 g/acre. The results for the MTD in the data set on Oryza sativa [2] and in the data set on Oryza sativa [4] were 20 g/acre and above 5 g/acre, respectively.
As to `CC1=C(c2ccccc2)C(=O)N(C(C)(C)c2nc3cccnc3s2)C1`, the MED turned out to be 0.313 g/acre with Echinochloa oryzicola [1], 5 g/acre in the data set with Sagittaria pygmaea, 2.5 g/acre in the data set with Echinochloa oryzicola [3] and 2.5 g/acre in data set [5]. Also, the MTD is listed as 0.313 g/acre with Oryza sativa [2] and above 0.313 g/acre in the data set on Oryza sativa [4].
As to `CC1=C(c2ccccc2)C(=O)N(C(C)(C)c2sc3ccccc3[n+]2[O-])C1`, the MED was below 10 g/acre in the data set with Echinochloa oryzicola [1], 160 g/acre with Sagittaria pygmaea, below 5 g/acre in the data set on Echinochloa oryzicola [3] and 160 g/acre in data set [5]. Moreover, the MTD in the data set on Oryza sativa [2] and in the data set with Oryza sativa [4] was 80 g/acre in each case.
Regarding `CC1=C(c2ccc(F)cc2F)C(=O)N(C(C)(C)c2nc3ccccc3s2)C1`, the MED with Echinochloa oryzicola [1] is given as 1.25 g/acre; in the data set with Sagittaria pygmaea, 10 g/acre; in the data set with Echinochloa oryzicola [3], below 5 g/acre; in data set [5] it was 10 g/acre. For the same molecule, the MTD in the data set on Oryza sativa [2] was 10 g/acre; with Oryza sativa [4] it was above 5 g/acre.
Consider `COc1ccc(C2=C(C)CN(C(C)(C)c3nc4ccccc4s3)C2=O)cc1OC`, for which the MED with Echinochloa oryzicola [1] is given as 160 g/acre; with Sagittaria pygmaea it was 160 g/acre; with Echinochloa oryzicola [3], below 5 g/acre; in data set [5], 160 g/acre. The MTD in the data set with Oryza sativa [2] and in the data set with Oryza sativa [4] was 80 g/acre in each case.
`CC1=C(c2ccccc2)C(=O)N(C(C)(C)c2nc3ccc(Cl)cc3s2)C1`: the MED with Echinochloa oryzicola [1] is given as 1.25 g/acre; in the data set on Sagittaria pygmaea, 80 g/acre; in the data set with Echinochloa oryzicola [3], below 5 g/acre; in data set [5], 160 g/acre. Besides, the values for the MTD in the data set on Oryza sativa [2] and with Oryza sativa [4] were 40 g/acre and 20 g/acre, respectively.
For the molecule `CC1=C(c2ccccc2C#N)C(=O)N(C(C)(C)c2nc3ccccc3s2)C1`, the MED is reported as 10 g/acre in the data set with Echinochloa oryzicola [1], 40 g/acre with Sagittaria pygmaea, below 5 g/acre in the data set on Echinochloa oryzicola [3] and 5 g/acre in data set [5]. For the same molecule, the MTD was 5 g/acre in the data set with Oryza sativa [2] and above 5 g/acre with Oryza sativa [4].
As to `CC1=C(c2ccccc2)C(=O)N(C(C)(C)c2cccs2)C1`, the MED in the data set with Echinochloa oryzicola [1] is 5 g/acre; with Sagittaria pygmaea, 20 g/acre; in the data set on Echinochloa oryzicola [3], below 10 g/acre; in data set [5] it was 10 g/acre. Besides, the figures for the MTD in the data set on Oryza sativa [2] and with Oryza sativa [4] were 20 g/acre and 10 g/acre, respectively.
For the molecule `CC1=C(c2ccccc2)C(=O)N(C(C)(C)c2nc3c(Cl)cccc3s2)C1`, the MED is reported as 1.25 g/acre in the data set with Echinochloa oryzicola [1], 80 g/acre in the data set with Sagittaria pygmaea, 5 g/acre with Echinochloa oryzicola [3] and 80 g/acre in data set [5]. Further, the MTD in the data set on Oryza sativa [2] is 10 g/acre; in the data set with Oryza sativa [4] it was above 5 g/acre.
As to `CC1=C(c2ccccc2)C(=O)N(C(C)(C)c2nc3ccc(C)cc3s2)C1`, the MED is listed as 10 g/acre in the data set on Echinochloa oryzicola [1], 20 g/acre in the data set with Sagittaria pygmaea, below 5 g/acre with Echinochloa oryzicola [3] and 80 g/acre in data set [5]. Further, the MTD in the data set on Oryza sativa [2] was determined as 20 g/acre; with Oryza sativa [4] it was 5 g/acre.
On to `CC1=C(Oc2ccc(Cl)cc2)C(=O)N(C(C)(C)c2nc3ccccc3s2)C1`, for which the MED in the data set with Echinochloa oryzicola [1] is 80 g/acre; with Sagittaria pygmaea, 160 g/acre; in the data set with Echinochloa oryzicola [3], below 5 g/acre; in data set [5], 160 g/acre. Besides, the MTD with Oryza sativa [2] and in the data set on Oryza sativa [4] was 40 g/acre in each case.
For `CC1=C(c2cccc(C(F)(F)F)c2)C(=O)N(C(C)(C)c2nc3ccccc3s2)C1`, the MED in the data set on Echinochloa oryzicola [1] is 80 g/acre; in the data set with Sagittaria pygmaea, 160 g/acre; in the data set on Echinochloa oryzicola [3], below 5 g/acre; in data set [5], 160 g/acre. The MTD in the data set on Oryza sativa [2] and in the data set with Oryza sativa [4] was 20 g/acre throughout.
As to `CC1=C(c2ccccc2C(F)(F)F)C(=O)N(C(C)(C)c2nc3ccccc3s2)C1`, the MED is given as 20 g/acre with Echinochloa oryzicola [1], 5 g/acre with Sagittaria pygmaea, below 5 g/acre in the data set with Echinochloa oryzicola [3] and 80 g/acre in data set [5]. Besides, the MTD in the data set on Oryza sativa [2] stood at 40 g/acre; with Oryza sativa [4] it was 20 g/acre.
Turning to `CC1=C(c2ccccc2)C(=O)N(C(C)(C)c2nc3ccccc3n2C)C1`, the MED in the data set on Echinochloa oryzicola [1] is recorded as below 10 g/acre; with Sagittaria pygmaea it was 20 g/acre; in the data set with Echinochloa oryzicola [3], below 5 g/acre; in data set [5] it was 40 g/acre. Moreover, the figures for the MTD with Oryza sativa [2] and with Oryza sativa [4] were 40 g/acre and 80 g/acre, respectively.
On to `CC1=C(c2ccccc2)C(=O)N(C(C)(C)c2nc3cc(C#N)ccc3s2)C1`, for which the MED is 5 g/acre in the data set with Echinochloa oryzicola [1], 40 g/acre with Sagittaria pygmaea, below 5 g/acre in the data set on Echinochloa oryzicola [3] and 20 g/acre in data set [5]. The MTD with Oryza sativa [2] is reported as 10 g/acre; in the data set on Oryza sativa [4], 40 g/acre.
In the case of `CC1=C(c2ccccc2F)C(=O)N(C(C)(C)c2nc3ccccc3s2)C1`, the MED is 0.156 g/acre in the data set with Echinochloa oryzicola [1], 20 g/acre with Sagittaria pygmaea, 2.5 g/acre with Echinochloa oryzicola [3] and 10 g/acre in data set [5]. Further, the MTD in the data set with Oryza sativa [2] came to 10 g/acre; with Oryza sativa [4], 5 g/acre.
As to `CC1=C(c2ccccc2)C(=O)N(C(C)(C)c2nc3cccc(Cl)c3s2)C1`, the MED in the data set with Echinochloa oryzicola [1] was 0.156 g/acre; in the data set with Sagittaria pygmaea, 80 g/acre; with Echinochloa oryzicola [3], below 5 g/acre; in data set [5] it was 40 g/acre. For the same molecule, the MTD in the data set on Oryza sativa [2] was determined as 20 g/acre; in the data set with Oryza sativa [4] it was 10 g/acre.
Take `CC1=C(c2cccc(Cl)c2)C(=O)N(C(C)(C)c2nc3ccccc3s2)C1`: the MED in the data set with Echinochloa oryzicola [1] is 10 g/acre; in the data set on Sagittaria pygmaea, 80 g/acre; in the data set with Echinochloa oryzicola [3], below 5 g/acre; in data set [5], 40 g/acre. Besides, the MTD in the data set with Oryza sativa [2] amounted to 10 g/acre; in the data set with Oryza sativa [4], 5 g/acre.
As to `COc1ccc(C2=C(C)CN(C(C)(C)c3nc4ccccc4s3)C2=O)cc1`, the MED in the data set with Echinochloa oryzicola [1] is 20 g/acre; in the data set with Sagittaria pygmaea, 80 g/acre; in the data set with Echinochloa oryzicola [3], below 5 g/acre; in data set [5], 80 g/acre. Also, the MTD with Oryza sativa [2] is on record as 40 g/acre; in the data set with Oryza sativa [4], 10 g/acre.
In the case of `CC1=C(c2ccccc2)C(=O)N(C(C)(C)c2cc3ccccc3o2)C1`, the MED was 0.313 g/acre in the data set on Echinochloa oryzicola [1], 80 g/acre in the data set with Sagittaria pygmaea, 2.5 g/acre with Echinochloa oryzicola [3] and 80 g/acre in data set [5]. The MTD in the data set with Oryza sativa [2] was 20 g/acre; in the data set with Oryza sativa [4], 10 g/acre.
Take `COc1cccc2sc(C(C)(C)N3CC(C)=C(c4ccccc4)C3=O)nc12`: the MED with Echinochloa oryzicola [1] is on record as 10 g/acre; in the data set with Sagittaria pygmaea, 80 g/acre; in the data set on Echinochloa oryzicola [3], below 5 g/acre; in data set [5], 80 g/acre. Further, the MTD with Oryza sativa [2] amounted to 40 g/acre; in the data set with Oryza sativa [4] it was 20 g/acre.
`COc1ccccc1C1=C(C)CN(C(C)(C)c2nc3ccccc3s2)C1=O`: the MED in the data set with Echinochloa oryzicola [1] is recorded as 5 g/acre; with Sagittaria pygmaea it was 5 g/acre; in the data set with Echinochloa oryzicola [3], below 5 g/acre; in data set [5], 5 g/acre. In addition, the MTD is reported as 5 g/acre with Oryza sativa [2] and above 5 g/acre in the data set on Oryza sativa [4].
Regarding `CC1=C(c2ccccc2)C(=O)N(C(C)(C)c2nc(C(C)(C)C)cs2)C1`, the MED came out at 5 g/acre in the data set on Echinochloa oryzicola [1], 80 g/acre with Sagittaria pygmaea, 5 g/acre in the data set with Echinochloa oryzicola [3] and 80 g/acre in data set [5]. The figures for the MTD in the data set with Oryza sativa [2] and in the data set on Oryza sativa [4] were 10 g/acre and 5 g/acre, respectively.
Take `CC(=O)OC1=C(c2ccccc2)C(=O)N(C(C)(C)c2nc3ccccc3s2)C1`: the MED with Echinochloa oryzicola [1] is on record as 80 g/acre; with Sagittaria pygmaea it was 80 g/acre; in the data set on Echinochloa oryzicola [3] it was below 5 g/acre; in data set [5] it was 80 g/acre. Further, the MTD in the data set with Oryza sativa [2] and with Oryza sativa [4] was below 20 g/acre in each case.
With `COc1ccc(OC)c(C2=C(C)CN(C(C)(C)c3nc4ccccc4s3)C2=O)c1`, the MED is given as 80 g/acre in the data set on Echinochloa oryzicola [1], 160 g/acre with Sagittaria pygmaea, below 5 g/acre with Echinochloa oryzicola [3] and 160 g/acre in data set [5]. Further, the results for the MTD with Oryza sativa [2] and in the data set with Oryza sativa [4] were 20 g/acre and 10 g/acre, respectively.
As to `CC1=C(c2ccccc2Cl)C(=O)N(C(C)(C)c2nc3ccccc3s2)C1`, the MED in the data set with Echinochloa oryzicola [1] stood at 2.5 g/acre; in the data set on Sagittaria pygmaea it was 10 g/acre; in the data set on Echinochloa oryzicola [3], 2.5 g/acre; in data set [5] it was 10 g/acre. Moreover, the MTD worked out at 2.5 g/acre in the data set with Oryza sativa [2] and 1.25 g/acre with Oryza sativa [4].
For `CC1=C(c2cccnc2)C(=O)N(C(C)(C)c2nc3ccccc3s2)C1`, the MED was 2.5 g/acre in the data set on Echinochloa oryzicola [1], below 5 g/acre in the data set with Sagittaria pygmaea, below 5 g/acre in the data set on Echinochloa oryzicola [3] and 2.5 g/acre in data set [5]. Further, the MTD in the data set with Oryza sativa [2] was 10 g/acre; with Oryza sativa [4] it was 5 g/acre.
With `CC1=C(c2ccccc2)C(=O)N(C(C)(C)c2nc3cc(Cl)ccc3s2)C1`, the MED with Echinochloa oryzicola [1] is recorded as 0.625 g/acre; in the data set on Sagittaria pygmaea, 80 g/acre; with Echinochloa oryzicola [3], below 5 g/acre; in data set [5], 40 g/acre. Further, the MTD in the data set with Oryza sativa [2] was 40 g/acre; with Oryza sativa [4] it was 10 g/acre.

For the origin of these results see ChEMBL document CHEMBL3046147, “Synthesis and Herbicidal Activity of 1-Arylalkyl-3-pyrrolin-2-one Derivatives” (J Pestic Sci, 2000).
